{
  "source": "patent US20100055032A1",
  "about": "“METHODS FOR […] IMAGING USING NANOP[…] AGENTS” (NanoScan Imaging LLC, priority 2001, published 2010)",
  "key": {"[1]": {"settings": "for Percent Uptake (%) Aorta / Percent Uptake (%) Brain / Percent Uptake (%) Cardiac / Percent Uptake (%) Liver / Percent Uptake (%) Portal Vein / Percent Uptake (%) Posterior Vena Cava / Percent Uptake (%) Spleen: pre-treatment = 100.0", "quoted_text": "Animals used in this study were six (6) male New Zealand white rabbits obtained from UCD. At the time of initiation, the rabbits were adult in age and weighed approximately 2.69±0.06 kg. The animals were housed separately in cages and fed a cholesterol enriched diet (CED) (TestDiet®—Richmond, Ind.) dry laboratory diet. Filtered tap water was provided ad labium. The animals were acclimated for a minimum of 7 days prior to the start of the study.\nThe study design comprised putting the rabbits on a CED for 5 weeks prior to the carotid overstretch procedure. At week 5, the carotid overstretch procedure was performed along with anticoagulant therapy (described below). The rabbits were then placed back on the CED with the anticoagulant therapy for an additional two (2) weeks. The rabbits were then anesthetized and Computer Tomography (CT) studies were performed. An iodinated nanoparticle, PH-50, having a mean diameter of 282 nm and a concentration of 15% (w/v) was evaluated in intact male rabbits with an average weight of 2.69±0.06 kg. Six (6) mL/kg of PH-50 was infused over ninety (90) minutes intravenously (IV) via an ear vein. The rabbits were then euthanized and necropsied after the 8 hour CT study.\nThe CED diet consisted of Purina® 5321 (a standard high-quality rabbit chow that is widely available) supplemented with 2% cholesterol, 5% coconut oil and 0.5% sodium cholate. The CED was formulated by and purchased from TestDiet® (Richmond, Ind.).\nThe carotid overstretch procedure was performed as follows: Rabbits were pretreated with an appropriate anticoagulant (heparin) prior to the procedure, and maintained on aspirin (20 mg/kg) for 14 days after the procedure. On the day of the procedure, the rabbits were boxed down and ventilated appropriately. The left carotid artery was exposed using standard techniques known in the art. A small puncture was made distal to the site to be overstretched, and a balloon catheter was placed in the artery. The vessel diameter was estimated from direct visualization. The balloon overstretch injury was performed using balloon diameters 30% greater than the baseline arterial diameter at the target areas three inflations of the balloon at approximately 6 atmospheric pressure for 30 seconds each, with a one-minute interval between inflations. Afterwards, the catheter was withdrawn and the rabbits allowed to recover for 14 days prior to the administration of PH-50. The animals were maintained on the CED and aspirin therapy during the 14-day recovery period. Fourteen (14) days following the overstretch procedure, the rabbits were anesthetized and maintained under anesthesia during PH-50 infusion and the CT scan procedures. […] In addition, whole body CT scans were made at contiguous 5 mm slices (at pretreatment, 4 hours and 8 hour studies).\nThe computer tomography (CT) imaging was performed with a GE® Hi-Speed Computed Tomography Scanner (Milwaukee, Wis.). The CT images were stored as DICOM3 images in GE® optical disks, CD-Rom. The parameter for CT imaging were 1 mm contiguous slices at 120 kvp, 1.5 seconds at 150 mA. CT scans of the entire rabbit were performed (from rostral nasal area to pelvis at specified times)."}, "[2]": {"test_system": "atherosclerotic plaques", "experiment": "Correlation of CT/Faxitron images with histopathology (Histopathology Correlation Scale)", "type": "in vivo, New Zealand white rabbits", "parameters": "key to HCS score, renal images: 0=no correlation; 5=direct correlation", "from_the_text": "The primary focus of this study was to study the potential uptake by atherosclerotic plaques of the compound PH-50. The spatial resolution of the CT scanner used in these experiments was approximately 0.15 mm and determination of plaque formation and PH-50 uptake were correlated with histopathology. The timetable for the schedule of CT studies for rabbit numbers 3081 and 3086 are outlined in Table 8.\nAll sets of data were carefully harvested, analyzed and then correlated with histopathology. Images were collected, labeled as either “carotid”, “Lung”, “Spleen”, “Liver”, “Cardiac”, “Renal” or “Faxitron images of the carotids,” and then graded according to a Histopathology Correlation Scale (HCS), where 0=no correlation and 5=direct correlation."}, "[3]": {"settings": "Rabbit No. 3081, 18 mL/90 min IV infusion (900 mg/kg), 255 min"}, "[4]": {"settings": "Rabbit No. 3081, 18 mL/90 min IV infusion (900 mg/kg), 495 min"}, "[5]": {"settings": "Rabbit No. 3086, 18 mL/90 min IV infusion (900 mg/kg), 250 min"}, "[6]": {"settings": "Rabbit No. 3086, 18 mL/90 min IV infusion (900 mg/kg), 480 min"}},
  "note": "Read-outs that look alike come from different tables or passages of the source.",
  "data": [
    {"smiles": "CCOC(=O)CCCCCOC(=O)c1c(I)c(NC(C)=O)c(I)c(NC(C)=O)c1I", "note": "[PH-50, 6-ethoxy-6-oxohexy-3,5-bis(acetylamino)-2,4,6-triiodobenzoate]", "values": [
      {"measurement": "Hounsfield Units (HU) Aorta", "setting": "[1]; [3]", "value": 56.5, "unit": "HU"},
      {"measurement": "Hounsfield Units (HU) Brain", "setting": "[1]; [3]", "value": 49.1, "unit": "HU"},
      {"measurement": "Hounsfield Units (HU) Cardiac", "setting": "[1]; [3]", "value": 136.2, "unit": "HU"},
      {"measurement": "Hounsfield Units (HU) Liver", "setting": "[1]; [3]", "value": 169.3, "unit": "HU"},
      {"measurement": "Hounsfield Units (HU) Portal Vein", "setting": "[1]; [3]", "value": 56.4, "unit": "HU"},
      {"measurement": "Hounsfield Units (HU) Posterior Vena Cava", "setting": "[1]; [3]", "value": 95.3, "unit": "HU"},
      {"measurement": "Hounsfield Units (HU) Spleen", "setting": "[1]; [3]", "value": 449.8, "unit": "HU"},
      {"measurement": "Hounsfield Units (HU) Aorta", "setting": "[1]; [4]", "value": 89.3, "unit": "HU"},
      {"measurement": "Hounsfield Units (HU) Brain", "setting": "[1]; [4]", "value": 36.8, "unit": "HU"},
      {"measurement": "Hounsfield Units (HU) Cardiac", "setting": "[1]; [4]", "value": 138.8, "unit": "HU"},
      {"measurement": "Hounsfield Units (HU) Liver", "setting": "[1]; [4]", "value": 110.6, "unit": "HU"},
      {"measurement": "Hounsfield Units (HU) Portal Vein", "setting": "[1]; [4]", "value": 55.4, "unit": "HU"},
      {"measurement": "Hounsfield Units (HU) Posterior Vena Cava", "setting": "[1]; [4]", "value": 87.8, "unit": "HU"},
      {"measurement": "Hounsfield Units (HU) Spleen", "setting": "[1]; [4]", "value": 351.2, "unit": "HU"},
      {"measurement": "Percent Uptake (%) Aorta", "setting": "[1]; Rabbit No. 3081, 255 min", "value": 84.0, "unit": "%"},
      {"measurement": "Percent Uptake (%) Brain", "setting": "[1]; Rabbit No. 3081, 255 min", "value": 164.2, "unit": "%"},
      {"measurement": "Percent Uptake (%) Cardiac", "setting": "[1]; Rabbit No. 3081, 255 min", "value": 383.3, "unit": "%"},
      {"measurement": "Percent Uptake (%) Liver", "setting": "[1]; Rabbit No. 3081, 255 min", "value": 383.9, "unit": "%"},
      {"measurement": "Percent Uptake (%) Portal Vein", "setting": "[1]; Rabbit No. 3081, 255 min", "value": 128.5, "unit": "%"},
      {"measurement": "Percent Uptake (%) Posterior Vena Cava", "setting": "[1]; Rabbit No. 3081, 255 min", "value": 141.0, "unit": "%"},
      {"measurement": "Percent Uptake (%) Spleen", "setting": "[1]; Rabbit No. 3081, 255 min", "value": 510.6, "unit": "%"},
      {"measurement": "Percent Uptake (%) Aorta", "setting": "[1]; Rabbit No. 3081, 495 min", "value": 132.7, "unit": "%"},
      {"measurement": "Percent Uptake (%) Brain", "setting": "[1]; Rabbit No. 3081, 495 min", "value": 123.1, "unit": "%"},
      {"measurement": "Percent Uptake (%) Cardiac", "setting": "[1]; Rabbit No. 3081, 495 min", "value": 250.8, "unit": "%"},
      {"measurement": "Percent Uptake (%) Liver", "setting": "[1]; Rabbit No. 3081, 495 min", "value": 250.8, "unit": "%"},
      {"measurement": "Percent Uptake (%) Portal Vein", "setting": "[1]; Rabbit No. 3081, 495 min", "value": 126.2, "unit": "%"},
      {"measurement": "Percent Uptake (%) Posterior Vena Cava", "setting": "[1]; Rabbit No. 3081, 495 min", "value": 129.9, "unit": "%"},
      {"measurement": "Percent Uptake (%) Spleen", "setting": "[1]; Rabbit No. 3081, 495 min", "value": 398.6, "unit": "%"},
      {"measurement": "Hounsfield Units (HU) Aorta", "setting": "[1]; [5]", "value": 64.0, "unit": "HU"},
      {"measurement": "Hounsfield Units (HU) Brain", "setting": "[1]; [5]", "value": 31.3, "unit": "HU"},
      {"measurement": "Hounsfield Units (HU) Cardiac", "setting": "[1]; [5]", "value": 220.2, "unit": "HU"},
      {"measurement": "Hounsfield Units (HU) Liver", "setting": "[1]; [5]", "value": 189.4, "unit": "HU"},
      {"measurement": "Hounsfield Units (HU) Portal Vein", "setting": "[1]; [5]", "value": 54.5, "unit": "HU"},
      {"measurement": "Hounsfield Units (HU) Posterior Vena Cava", "setting": "[1]; [5]", "value": 96.5, "unit": "HU"},
      {"measurement": "Hounsfield Units (HU) Spleen", "setting": "[1]; [5]", "value": 786.6, "unit": "HU"},
      {"measurement": "Hounsfield Units (HU) Aorta", "setting": "[1]; [6]", "value": 24.1, "unit": "HU"},
      {"measurement": "Hounsfield Units (HU) Brain", "setting": "[1]; [6]", "value": 34.7, "unit": "HU"},
      {"measurement": "Hounsfield Units (HU) Cardiac", "setting": "[1]; [6]", "value": 200.3, "unit": "HU"},
      {"measurement": "Hounsfield Units (HU) Liver", "setting": "[1]; [6]", "value": 98.2, "unit": "HU"},
      {"measurement": "Hounsfield Units (HU) Portal Vein", "setting": "[1]; [6]", "value": 28.1, "unit": "HU"},
      {"measurement": "Hounsfield Units (HU) Posterior Vena Cava", "setting": "[1]; [6]", "value": 58.6, "unit": "HU"},
      {"measurement": "Hounsfield Units (HU) Spleen", "setting": "[1]; [6]", "value": 228.5, "unit": "HU"},
      {"measurement": "Percent Uptake (%) Aorta", "setting": "[1]; Rabbit No. 3086, 250 min", "value": 186.6, "unit": "%"},
      {"measurement": "Percent Uptake (%) Brain", "setting": "[1]; Rabbit No. 3086, 250 min", "value": 81.3, "unit": "%"},
      {"measurement": "Percent Uptake (%) Cardiac", "setting": "[1]; Rabbit No. 3086, 250 min", "value": 320.1, "unit": "%"},
      {"measurement": "Percent Uptake (%) Liver", "setting": "[1]; Rabbit No. 3086, 250 min", "value": 384.2, "unit": "%"},
      {"measurement": "Percent Uptake (%) Portal Vein", "setting": "[1]; Rabbit No. 3086, 250 min", "value": 122.7, "unit": "%"},
      {"measurement": "Percent Uptake (%) Posterior Vena Cava", "setting": "[1]; Rabbit No. 3086, 250 min", "value": 204.9, "unit": "%"},
      {"measurement": "Percent Uptake (%) Spleen", "setting": "[1]; Rabbit No. 3086, 250 min", "value": 792.9, "unit": "%"},
      {"measurement": "Percent Uptake (%) Aorta", "setting": "[1]; Rabbit No. 3086, 480 min", "value": 70.3, "unit": "%"},
      {"measurement": "Percent Uptake (%) Brain", "setting": "[1]; Rabbit No. 3086, 480 min", "value": 90.1, "unit": "%"},
      {"measurement": "Percent Uptake (%) Cardiac", "setting": "[1]; Rabbit No. 3086, 480 min", "value": 291.1, "unit": "%"},
      {"measurement": "Percent Uptake (%) Liver", "setting": "[1]; Rabbit No. 3086, 480 min", "value": 199.2, "unit": "%"},
      {"measurement": "Percent Uptake (%) Portal Vein", "setting": "[1]; Rabbit No. 3086, 480 min", "value": 63.3, "unit": "%"},
      {"measurement": "Percent Uptake (%) Posterior Vena Cava", "setting": "[1]; Rabbit No. 3086, 480 min", "value": 124.4, "unit": "%"},
      {"measurement": "Percent Uptake (%) Spleen", "setting": "[1]; Rabbit No. 3086, 480 min", "value": 230.3, "unit": "%"},
      {"measurement": "adverse reactions during the infusion", "setting": "[1]; anesthetized rabbits, 6 mL/kg IV over 90 min", "value": "No adverse reactions"},
      {"measurement": "blood pressure or heart rate", "setting": "[1]; anesthetized rabbits, during infusion of 6 mL/kg IV over 90 min", "value": "no increase"},
      {"measurement": "uptake by atherosclerotic plaques", "setting": "[2]; CT with histopathology, cholesterol-fed rabbits", "value": "taken up by atherosclerotic plaques in the heart and lung"},
      {"measurement": "HCS score, carotid images", "setting": "[2]; left carotid of rabbit no. 3086", "value": 2},
      {"measurement": "HCS score, Faxitron images", "setting": "[2]; mid region of the left carotid artery of rabbit no. 3086", "value": 3},
      {"measurement": "HCS score, cardiac images", "setting": "[2]; plaques in the coronary arteries and myocardium of rabbit no. 3086, 4 and 8 hours post-injection", "value": 4},
      {"measurement": "HCS score, renal images", "setting": "[2]; renal artery of rabbit no. 3086, area not submitted for histopathology", "value": 0},
      {"measurement": "HCS score, liver images", "setting": "[2]; small arterioles of the liver of rabbit no. 3086, 4 hours post-injection", "value": 3},
      {"measurement": "HCS score, lung images", "setting": "[2]; small arterioles of the lung, 4 hours post-injection", "value": 4},
      {"measurement": "HCS score, spleen images", "setting": "[2]; small arterioles of the spleen of rabbit no. 3086, 4 hours post-injection", "value": 4}
    ]}
  ]
}
